Patent US11752162B2, “Compounds and compositions for treating solid tumors by intratumoral administration” (Novartis AG, priority 2017, dated 2023)

Assays:
[1] = Adsorption of compounds to aluminum hydroxide in histidine buffer (pH 6.8); format: physicochemical; conditions: histidine buffer pH 6.8, 0.1 mg/mL compound, 37° C. 5 hours
Experimental: The resulting solution was diluted 10-fold with blank histidine buffer to a final compound concentration of 0.1 mg/mL. Diluted solutions were incubated at 37° C. for 5 hours. The samples were centrifuged at 14,000 rpm for 10 minutes to pellet the insoluble. The supernatant (along with an internal standard) was then evaluated by LC-MS/MS using a ballistic gradient (from 5% CH3CN-0.5% formic acid to 95% CH3CN-1.0% formic acid in 3.5 minutes) on a Waters Atlantis dC18 (50 mm×2.1 mm) column at room temperature against a calibration curve prepared at known compound concentrations ranging from 0.005 to 50 μM. The concentration in the supernatant was calculated as % unbound to aluminum hydroxide compared to control; the % bound to aluminum hydroxide was calculated as 100% minus % unbound.

[2] = Pharmacokinetics and mass balance of aluminum and Compound 15 in male Wistar rats (Example 12); format: in vivo, rat; conditions: single i.v. dose equivalent to 0.2 mg of aluminum per animal
Experimental: The pharmacokinetics and mass balance of aluminum and Compound 15 were investigated following a single subcutaneous (s.c.) dose (1 mL) of Suspension H (Compound 15/Alhydrogel® at a 2:1 ratio of aluminum to Compound 15) in male Wistar rats. In addition, the pharmacokinetics of aluminum were investigated following a single intravenous (i.v.) dose (0.5 mL) of 0.4 mg/mL AlCl3.6H2O (equivalent to 0.2 mg of aluminum) in male Wistar rat. Additionally, a control group dosed subcutaneously with saline were evaluated for environmental background aluminum levels.
Metal free/trace metal grade containers/tubes/tips (<1 ng/g Al) were used for sample handling. Aluminum content was analyzed in serum and urine (Frontage Laboratories).
Approximately 0.3 to 0.5 mL of blood samples were collected from carotid artery cannulation at 0 (pre dose), 0.083 (IV only), 0.25 (IV only), 0.5, 3, 6, 24, 72, 168, 336, 504, 672 hours post dose.
Urine was collected from each animal for the following periods: 0 (24 h before dose), 0-24, 24-48, 48-72, 72-96, 96-168 hours post dose, then weekly up to 672 h. The urine samples were stored at −20° C. until analyzed. Feces were collected from each animal and samples were pooled per subject at the end of study at 672 h.
Compound 15 and aluminum levels were analyzed in the serum and urine samples obtained from the s.c. group whereas only aluminum levels were analyzed in the i.v. group.

MC38 tumors = assay: Contralateral MC38 colon cancer model, alone or with checkpoint inhibitors; format: in vivo, mouse; conditions: single agents; Compound 15 50 μg i.t. weekly x2, antibodies 10 mg/kg i.p. twice weekly
Experimental: MC38 cells were grown in sterile conditions in a 37° C. incubator with 5% CO2 for two weeks. The cells were cultured in Dulbecco's Modified Eagle's medium (DMEM) media supplemented with 10% FBS, cells were passed every 2-3 days. On the day of injection, cells were harvested (Passage 12) and re-suspended in Hanks' Balanced Salt Solution (HBSS) at a concentration of 2.5×10^6/ml. Cells were Radil tested for mycoplasma and murine viruses.
For each mouse, 0.25×10^6 cells were implanted with subcutaneously injection into right flank using a 28½ g needle ([…]). After the first implantation on day 3 (0.25×10^6) cells are implanted with a subcutaneous injection into left flank using a 28½ g needle (100 μL injection volume). Tumor sizes were assessed three times a week once tumors were palpable. Tumor sizes were determined by using caliper measurements, with tumor volumes calculated using the formula: (Length×Width×Width)/2.
Female C57BL/6 mice bearing the MC38 tumors were randomized into 7 groups (n=9 mice per group) 9 days post tumor cell implantation with an average tumor volume range of 69.09-142.25 mm^3, and the separate groups of tumor bearing mice received treatment as shown in Table 17.
The anti-tumor efficacy of Compound 15 adsorbed to aluminum hydroxide (Alhydrogel®) alone or in combination with checkpoint inhibitors, was determined using a contralateral MC38 colon cancer model. The tumor volume was obtained after two weekly intratumoral injections of Compound 15 adsorbed to aluminum hydroxide (50 μg each) either alone (Group 2), in a double combination with intraperitoneal injection (twice weekly) of an anti-PD-L1 antibody (10 mg/kg) (Group 5), in a double combination with intraperitoneal injection (twice weekly) of an anti-CTLA4 antibody (10 mg/kg) (Group 6), or in a triple combination with intraperitoneal injection (twice weekly) of an anti-PD-L1 antibody (10 mg/kg) and with intraperitoneal injection of an anti-CTLA4 antibody (10 mg/kg) (group 7). For comparison, data was obtained after an intraperitoneal injection (twice weekly) of the anti-PD-L1 antibody (10 mg/kg) alone (Group 3) and after an intraperitoneal injection (twice weekly) of the anti-CTLA4 antibody (10 mg/kg) alone (Group 4). The untreated control data was also obtained (Group 1).
The anti-tumor efficacy of Compound 15 alone (without aluminum hydroxide (Alhydrogel®)) or in combination with checkpoint inhibitors was determined using a contralateral MC38 colon cancer model. […] In addition, the anti-tumor efficacy of Compound 15 adsorbed to aluminum hydroxide (Alhydrogel®) alone or in a triple combination with checkpoint inhibitors was determined using a contralateral MC38 colon cancer model. […]

[3] = test system: MC38 syngeneic colon cancer tumor model; assay: MC38 syngeneic colon cancer tumor model, tumor volume at injection site and distant site; format: in vivo, mice; conditions: One-Way ANOVA post hoc Tukey, difference from no treatment
Source text: FIG. 10: A) Efficacy at the intratumor injection site following administration of Compound 15/aluminum hydroxide, an anti-PDL1 antibody or an anti-CTLA4 antibody as single agents or after the administration of combinations of Compound 15/aluminum hydroxide and an anti-PDL1 antibody and/or an anti-CTLA4 antibody.
The effect on tumor volume by administration of a compound of Formula (A), in the presence of aluminum-containing particles, with and without the administration of one or more checkpoint inhibitors is shown in Example 14.
Percent treatment/control (T/C) values for tumor were calculated using the following formula: % T/C=100×ΔT/ΔC if ΔT>0% % Regression=100×ΔT/Tinitial if ΔT<0 where: • T=mean tumor volume of the drug-treated group on the final day of the study; • ΔT=mean tumor volume of the drug-treated group on the final day of the study minus mean tumor volume of the drug-treated group on initial day of dosing; • Tinitial=mean tumor volume of the drug-treated group on initial day of dosing; • C=mean tumor volume of the control group on the final day of the study; • ΔC=mean tumor volume of the control group on the final day of the study minus mean tumor volume of the control group on initial day of dosing. All data were expressed as mean±standard error of the mean (SEM). Delta tumor volume

**Q.** With `Cc1cc(OCCOCCOCCP(=O)(O)O)ccc1CCc1cnc2c(N)nc3cc(CCC(=O)O)ccc3c2c1` [Compound 20, 3-(5-amino-2-(2-methyl-4-(2-(2-(2-phosphonoethoxy)ethoxy)ethoxy)phenethyl)benzo[f][1,7]naphthyridin-8-yl)propanoic acid] as the molecule, how does the “% Bound” value [1] read?
**A.** 97.0%

**Q.** Which AUClast of aluminum [2] does the source give for `O.O.O.O.O.O.[Al+3].[Cl-].[Cl-].[Cl-]` [AlCl3.6H2O] here?
**A.** 67400 ng·h/mL

**Q.** And the “mean Cmax of aluminum in serum” value [2]?
**A.** 26000 ng/mL

**Q.** What about the “mean Tmax of aluminum” value [2] of the same molecule?
**A.** 13.2 min

**Q.** And the “mean recovery of aluminum in urine” value [2]?
**A.** ~0.2 mg

**Q.** For `Cc1ccc2c(c1)nc(N)c1ncc(CCc3ccc(OCCOCCOCCC(F)(F)P(=O)(O)O)cc3C)cc12` [Compound 1, (3-(2-(2-(4-(2-(5-amino-8-methylbenzo[f][1,7]naphthyridin-2-yl)ethyl)-3-methylphenoxy)ethoxy)ethoxy)-1,1-difluoropropyl)phosphonic acid], which “% Bound” value [1] is on record?
**A.** 98.2%

**Q.** With `Cc1cc(OCCOCCOCCC(F)(F)P(=O)(O)O)ccc1CCc1cnc2c(N)nc3cc(CCC(=O)O)ccc3c2c1` [Compound 18, 3-(5-amino-2-(4-(2-(2-(3,3-difluoro-3-phosphonopropoxy)ethoxy)ethoxy)-2-methylphenethyl)benzo[f][1,7]naphthyridin-8-yl)propanoic acid] as the molecule, how does the “% Bound” value [1] read?
**A.** 96.2%

**Q.** For `Cc1cc(OCCCC(F)(F)P(=O)(O)O)ccc1CCc1cnc2c(N)nc3cc(CCC(=O)O)ccc3c2c1` [Compound 17, 3-(5-amino-2-(4-(4,4-difluoro-4-phosphonobutoxy)-2-methylphenethyl)benzo[f][1,7]naphthyridin-8-yl)propanoic acid], which “% Bound” value [1] is on record?
**A.** 94.5%

B1: anti-PD-L1: Anti-PD-L1 antibody BAP058-hum13 with heavy chain variable domain of SEQ ID NO:7 and light chain variable domain of SEQ ID NO:17 (antibody, V domains shown)
VH: EVQLVQSGAEVKKPGATVKISCKVSGYTFTSYWMYWVRQARGQRLEWIGRIDPNSGSTKYNEKFKNRFTISRDNSKNTLYLQMNSLRAEDTAVYYCARDYRKGLYAMDYWGQGTTVTVSS
VL: AIQLTQSPSSLSASVGDRVTITCKASQDVGTAVAWYLQKPGQSPQLLIYWASTRHTGVPSRFSGSGSGTDFTFTISSLEAEDAATYYCQQYNSYPLTFGQGTKVEIK
**Q.** With B1 as the molecule, how does the “% T/C at the contralateral tumor site” value (MC38 tumors) read?
**A.** 27.02%

**Q.** And the “% T/C at the primary injection site” value (MC38 tumors)?
**A.** 56.22%

B2: Anti PD-L1: anti-PDL1 antibody, inhibitor of the PD-L1 ligand, used as single agent or combination partner (antibody, V domains shown)
VH: EVQLVQSGAEVKKPGATVKISCKVSGYTFTSYWMYWVRQARGQRLEWIGRIDPNSGSTKYNEKFKNRFTISRDNSKNTLYLQMNSLRAEDTAVYYCARDYRKGLYAMDYWGQGTTVTVSS
VL: AIQLTQSPSSLSASVGDRVTITCKASQDVGTAVAWYLQKPGQSPQLLIYWASTRHTGVPSRFSGSGSGTDFTFTISSLEAEDAATYYCQQYNSYPLTFGQGTKVEIK
**Q.** With B2 as the molecule, how does the “Efficacy at a site distant from the injection site (distant site tumor)” value ([3]; post implant day 19, N=9 per group) read?
**A.** significantly different

**Q.** What about the “Efficacy at the intratumor injection site (treated site tumor)” value ([3]; post implant day 22, N=9 per group) of the same molecule?
**A.** significantly different
